Patent US20020137929A1, “1 - (3-heterocyclylphenyl) isothiourea, -isourea, -guanidine and -amidine herbicidal agents” (Intellectual Property Department, BASF Aktiengesellschaft, priority 1998, published 2002)

What was measured:
[1] = tested on: TRZAWR (Wheat, Winter, cv Riband); assay: Postemergence herbicidal evaluation; type: in vivo, Triticum aestivum; conditions: for TRZAWR herbicidal rating / Herbicidal rating TRZAWR: postemergence
In short: (§1)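 Scores (0–9) reflect plant stand, vigor, malformation, size, chlorosis and general appearance relative to control, read 4 to 5 weeks after treatment and averaged where tests were repeated. Application: about 0.0156–0.500 kg/ha sprayed at 40 psi onto two-week seedlings.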

MOOVA (Monochoria) = assay: Postemergence weed control under flooded paddy conditions; type: in vivo, Monochoria vaginalis; conditions: postemergence weeds, 3-4 weeks after treatment
In short: (§2)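 Herbicidal effect is judged by eye on a 0–9 scale versus control, 3–4 weeks after dosing. Dosing is into flood water kept 1.5–3 cm over the soil, at about 0.0313–0.500 kg/ha in aqueous/acetone 50/50 v/v, on 3–5 cm weeds and 1.5–2.5-leaf rice seedlings.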

ORYSAT (Rice, Tebonnet) [2] = assay: Rice tolerance to post-transplant applications, flooded paddy conditions (Table III); type: in vivo, Oryza sativa, (L.) Tebonnet
Description: (§3) Results of herbicide evaluation are expressed on a rating scale (0-9). The scale is based upon a visual observation of plant stand, vigor, malformation, size, chlorosis and overall plant appearance as compared with a control.
The tolerance of transplanted rice to post-transplanted herbicide applications is determined as follows: two ten-day-old rice seedlings (cv. Tebonnet) are transplanted into silt loam soil in 32 oz. plastic containers with a diameter of 10.5 cm and no drainage holes. After transplanting, the containers are flooded and the water level is maintained at 1.5 to 3 cm above the soil surface. Three days after transplanting, the flooded soil surface of the containers is treated with the selected aqueous/acetone 50/50 v/v mixture containing the test compounds to provide the equivalent of about 0.0313 to 0.500 kg/ha of active ingredient. The treated containers are placed on greenhouse benches, watered such that the water level is maintained as stated above, and cared for in accordance with conventional greenhouse procedures. Three to four weeks after treatment, the test is terminated and each container is examined and herbicidal effect rated according to the rating system provided in Example 37. The compounds evaluated are reported by compound number given in Example 37.
Plant species employed in this example are reported by header abbreviation, common name and scientific name.

AMBEL (Ragweed, Common) = assay: Postemergence herbicidal evaluation; type: in vivo, Ambrosia artemisifolia; conditions: for AMBEL herbicidal rating / Herbicidal rating AMBEL: postemergence
In short: as §1

[3] = tested on: SAGPY (Arrowhead (Pygmaea)); assay: Postemergence weed control under flooded paddy conditions; type: in vivo, Sagittaria pygmaea; conditions: postemergence weeds
In short: as §2

GALAP (Galium) = assay: Postemergence herbicidal evaluation; type: in vivo, Galium aparine; conditions: for GALAP herbicidal rating / Herbicidal rating GALAP: postemergence
In short: as §1

[4] = tested on: CHEAL (Lambsquarters, Common); assay: Preemergence herbicidal evaluation; type: in vivo, Chenopodium album; conditions: rated 4-5 weeks after treatment
In short: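 Visual 0-9 rating vs control (stand, vigor, malformation, size, chlorosis, overall appearance), scored 4-5 wk after spraying. Seeded soil cups were treated preemergence with compound in aqueous acetone, ~0.0156-0.500 kg/ha equivalent.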

ORYSAT (Rice, Tebonnet) [5] = assay: Rice tolerance to post-transplant applications, flooded paddy conditions (Table IV); type: in vivo, Oryza sativa, (L.) Tebonnet
Description: as §3
Plastic containers containing weeds which are 3 to 5 cm tall and rice seedlings at the 1.5 to 2.5 leaf stage are flooded with water. The water is maintained at 1.5 to 3 cm above the soil surface for the duration of the experiment. Test compounds are applied as aqueous/ acetone mixtures 50/50 v/v directly into the flood water to provide the equivalent of about 0.0313 to 0.500 kg/ha of active ingredient. The treated containers are placed on greenhouse benches and cared for in accordance with conventional greenhouse procedures. Three to four weeks after treatment, the test is terminated and each container is examined and herbicidal effect rated according to the rating system provided in Example 37. The compounds evaluated are reported by compound number given in Example 37.

[6] = rate 0.0313 kg/ha, 3-4 weeks after treatment
[7] = rate 0.0625 kg/ha, 3-4 weeks after treatment
[8] = rate 0.1250 kg/ha, 3-4 weeks after treatment
[9] = rate 0.2500 kg/ha, 3-4 weeks after treatment

| Molecule | Postemergence herbicidal rating TRZAWR ([1]; Rate 0.0158 kg/ha) | Postemergence herbicidal rating TRZAWR ([1]; Rate 0.0315 kg/ha) | Postemergence herbicidal rating TRZAWR ([1]; Rate 0.0630 kg/ha) | ORYSAT herbicidal effect rating (rice tolerance) (ORYSAT (Rice, Tebonnet) [2]; in vivo) | Postemergence herbicidal rating AMBEL (AMBEL (Ragweed, Common); Rate 0.0158 kg/ha) | Postemergence herbicidal rating AMBEL (AMBEL (Ragweed, Common); Rate 0.0315 kg/ha) | Postemergence herbicidal rating AMBEL (AMBEL (Ragweed, Common); Rate 0.0630 kg/ha) | Herbicidal rating SAGPY [3, 6] | Herbicidal rating SAGPY [3, 7] | Herbicidal rating SAGPY [3, 8] | Herbicidal rating SAGPY [3, 9] | Postemergence herbicidal rating GALAP (GALAP (Galium); Rate 0.0158 kg/ha) | Postemergence herbicidal rating GALAP (GALAP (Galium); Rate 0.0315 kg/ha) | Postemergence herbicidal rating GALAP (GALAP (Galium); Rate 0.0630 kg/ha) | Preemergence herbicidal rating CHEAL ([4]; rate 0.0156 kg/ha) | Preemergence herbicidal rating CHEAL ([4]; rate 0.0625 kg/ha) | Preemergence herbicidal rating CHEAL ([4]; rate 0.1250 kg/ha) | Preemergence herbicidal rating CHEAL ([4]; rate 0.2500 kg/ha) | Herbicidal rating ORYSAT (rice tolerance) (ORYSAT (Rice, Tebonnet) [5]; in vivo) | Preemergence herbicidal rating CHEAL ([4]; rate 0.0313 kg/ha) | further results |
| --- | --- | --- | --- | --- | --- | --- | --- | --- | --- | --- | --- | --- | --- | --- | --- | --- | --- | --- | --- | --- | --- |
| 2-{{2-Chloro-5-[3,6-dihydro-3-methyl-2,6-dioxo-4-(trifluoromethyl)-1(2H)-pyrimidinyl]-4-fluoro-phenyl}imino}-4-oxo-3,5-thiazolidenediacetic acid, 3-ethyl (2-propynyl) ester, (2:1) mixture with di-2-propynyl ester [Compound 58] | 5.0 | 5.0 | 7.5 | 4.0 | 9.0 | 9.0 | 9.0 | 0.0 | 0.0 | 0.0 | 4.0 | 1.0 | 3.0 | 9.0 | – | – | – | – | – | – | Herbicidal rating MOOVA (MOOVA (Monochoria); rate 0.0313 kg/ha): 0.0; Herbicidal rating MOOVA (MOOVA (Monochoria); rate 0.0625 kg/ha): 0.0; Herbicidal rating MOOVA (MOOVA (Monochoria); rate 0.1250 kg/ha): 3.0; Herbicidal rating MOOVA (MOOVA (Monochoria); rate 0.2500 kg/ha): 9.0 |
| CCOC(=O)CN1C(=O)C(CC(=O)O)SC1=Nc1cc(-n2c(=O)cc(C(F)(F)F)n(C)c2=O)c(Cl)cc1Cl (stereo not drawn) [Compound 33, 2-{{2,4-Dichloro-5-[3,6-dihydro-3-methyl-2,6-dioxo-4-(trifluoromethyl)-1(2H)-pyrimidinyl]phenyl}-imino}-4-oxo-3,5-thiazolidinediacetic acid, 3-ethyl ester] | 3.5 | 5.5 | 6.0 | – | 9.0 | 9.0 | 9.0 | – | – | – | 0.0 | 3.0 | 4.0 | 5.0 | 4.0 | 7.0 | 9.0 | 9.0 | 0.0 | – | Herbicidal rating ORYSAT (rice tolerance) (ORYSAT (Rice, Tebonnet) [2]; in vivo): 0.0 |
| CCOC(=O)CN1CC(=O)N(CC(=O)OCC)C1=Nc1cc(-n2c(=O)cc(C(F)(F)F)n(C)c2=O)c(F)cc1Cl [Compound 34, 2-{{2-Chloro-5-[3,6-dihydro-3-methyl-2,6-dioxo-4-(trifluoromethyl)-1(2H)-pyrimidinyl]-4-fluoro-phenyl}imino}-4-oxo-1,3-imidazolidinediacetic acid, diethyl ester] | 4.0 | 4.0 | 5.0 | – | 9.0 | 9.0 | 9.0 | 0.0 | 0.0 | 0.0 | 0.0 | 4.0 | 9.0 | 6.0 | – | 9.0 | 9.0 | 9.0 | – | 9.0 | Herbicidal rating ORYSAT (rice tolerance) (ORYSAT (Rice, Tebonnet) [2]; 0.0313 kg/ha, post-transplant rice, flooded paddy, rated 3-4 weeks after treatment): 3.0; Herbicidal rating ORYSAT (rice tolerance) (ORYSAT (Rice, Tebonnet) [2]; 0.0625 kg/ha, post-transplant rice, flooded paddy, rated 3-4 weeks after treatment): 3.0; Herbicidal rating ORYSAT (rice tolerance) (ORYSAT (Rice, Tebonnet) [2]; 0.1250 kg/ha, post-transplant rice, flooded paddy, rated 3-4 weeks after treatment): 4.0; Herbicidal rating ORYSAT (rice tolerance) (ORYSAT (Rice, Tebonnet) [2]; 0.2500 kg/ha, post-transplant rice, flooded paddy, rated 3-4 weeks after treatment): 6.0; Herbicidal rating ORYSAT (rice tolerance) (ORYSAT (Rice, Tebonnet) [5]; rate 0.0313 kg/ha, flooded paddy, post-transplant rice, 3-4 weeks after treatment): 3.0; Herbicidal rating ORYSAT (rice tolerance) (ORYSAT (Rice, Tebonnet) [5]; rate 0.0625 kg/ha, flooded paddy, post-transplant rice, 3-4 weeks after treatment): 3.0; Herbicidal rating ORYSAT (rice tolerance) (ORYSAT (Rice, Tebonnet) [5]; rate 0.1250 kg/ha, flooded paddy, post-transplant rice, 3-4 weeks after treatment): 4.0; Herbicidal rating ORYSAT (rice tolerance) (ORYSAT (Rice, Tebonnet) [5]; rate 0.2500 kg/ha, flooded paddy, post-transplant rice, 3-4 weeks after treatment): 6.0 |
| CC(C)C[C@@H](C(=O)O)N1C(=O)CSC1=Nc1cc(-n2c(=O)cc(C(F)(F)F)n(C)c2=O)c(F)cc1Cl [Compound 71, α-Isobutyl-2-{{2-chloro-5-[3,6-dihydro-3-methyl-2,6-dioxo-4-(trifluoromethyl)-1(2H)-pyrimidinyl]-4-fluorophenyl}imino}-4-oxo-3-thiazolidineacetic acid, L-] | – | – | – | 4.0 | – | – | – | – | – | – | – | – | – | – | 3.0 | 9.0 | 9.0 | 9.0 | 4.0 | 9.0 | TRZAWR herbicidal rating ([1]; rate 0.0158 kg/ha): 2.5; TRZAWR herbicidal rating ([1]; rate 0.0315 kg/ha): 3.5; TRZAWR herbicidal rating ([1]; rate 0.0630 kg/ha): 4.5; AMBEL herbicidal rating (AMBEL (Ragweed, Common); rate 0.0158 kg/ha): 9.0; AMBEL herbicidal rating (AMBEL (Ragweed, Common); rate 0.0315 kg/ha): 9.0; AMBEL herbicidal rating (AMBEL (Ragweed, Common); rate 0.0630 kg/ha): 9.0; Herbicidal rating SAGPY ([3]; Rate 0.1250 kg/ha, rated 3 to 4 weeks after treatment): 0.0; Herbicidal rating SAGPY ([3]; Rate 0.2500 kg/ha, rated 3 to 4 weeks after treatment): 0.0; GALAP herbicidal rating (GALAP (Galium); rate 0.0158 kg/ha): 4.0; GALAP herbicidal rating (GALAP (Galium); rate 0.0315 kg/ha): 6.0; GALAP herbicidal rating (GALAP (Galium); rate 0.0630 kg/ha): 7.0 |
| CCOC(=O)CN1C(=O)C(C(=O)OC(C)(C)C)SC1=Nc1cc(-n2c(=O)cc(C(F)(F)F)n(C)c2=O)c(F)cc1Cl (stereo not drawn) [Compound 167, 5-Carboxy-2-{{2-chloro-5-[3,6-dihydro-3-methyl-2,6-dioxo-4-(trifluoromethyl)-1(2H)-pyrimidinyl]-4-fluorophenyl}imino}-4-oxo-3-thiazolidineacetic acid, 5-tert-butyl ethyl ester] | – | – | – | – | – | – | – | – | – | – | – | – | – | – | – | – | – | – | – | – | Herbicidal rating TRZAWR ([1]; rate 0.0156 kg/ha): 4.0; Herbicidal rating TRZAWR ([1]; rate 0.0313 kg/ha): 4.0; Herbicidal rating TRZAWR ([1]; rate 0.0625 kg/ha): 4.0; Herbicidal rating TRZAWR ([1]; rate 0.1250 kg/ha): 4.5; herbicidal effect rating, ORYSAT (rice tolerance) (ORYSAT (Rice, Tebonnet) [2]; in vivo): 4.0; Herbicidal rating AMBEL (AMBEL (Ragweed, Common); rate 0.0156 kg/ha): 4.0; Herbicidal rating AMBEL (AMBEL (Ragweed, Common); rate 0.0313 kg/ha): 7.0; Herbicidal rating AMBEL (AMBEL (Ragweed, Common); rate 0.0625 kg/ha): 9.0; Herbicidal rating AMBEL (AMBEL (Ragweed, Common); rate 0.1250 kg/ha): 7.0; Preemergence herbicidal rating CHEAL ([4]; 0.0156 kg/ha): 7.0; Preemergence herbicidal rating CHEAL ([4]; 0.0313 kg/ha): 7.0; Preemergence herbicidal rating CHEAL ([4]; 0.0625 kg/ha): 9.0; Preemergence herbicidal rating CHEAL ([4]; 0.1250 kg/ha): 9.0; Preemergence herbicidal rating CHEAL ([4]; 0.2500 kg/ha): 9.0; Preemergence herbicidal rating CHEAL ([4]; 0.5000 kg/ha): 9.0; Herbicidal rating GALAP (GALAP (Galium); rate 0.0156 kg/ha): 2.0; Herbicidal rating GALAP (GALAP (Galium); rate 0.0313 kg/ha): 3.0; Herbicidal rating GALAP (GALAP (Galium); rate 0.0625 kg/ha): 4.0; Herbicidal rating GALAP (GALAP (Galium); rate 0.1250 kg/ha): 4.0 |
